What all share (test): growth of human tumour cells (NCI), 48 h
Test [1] concerns ACHN.
Test [2] deals with DU-145.
In test [3] the test system is HCC 2998.
The subject of test [4] is HOP-92.
For test [5], the system named is Hs-578T.
The test system of test [6] is MCF7.
Test [7] concerns MDA-MB-231.
Test [8] deals with NCI-H226.
Test [9] deals with NCI/ADR-RES.
Test [10] concerns PC-3.
Test [11] deals with RPMI-8226.
Test [12] concerns SK-OV-3.
Test [13] concerns T47D.
The test system of test [14] is TK-10.
For test [15], the system named is BT-549.
Test [16] deals with MDA-MB-435.
Test [17] has as its system Malme-3M.
Test [18] deals with RXF 393.

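1) Cells in 96-well plates. 2) Compound, 48 h, 5 concentrations. 3) Linear interpolation between surrounding doses. 4) Unreached endpoint = highest concentration. Abbreviation: GI50, concentration required for 50% inhibition of growth.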 Calls of active or inactive are those of the source. No stated cut-off is given here; in the data, active = GI50 up to about 1.1 µM and inactive = higher. Bounds are passed on as bounds.

For `COP(=O)(OC)C(Cc1cn(C(C)=O)c2ccccc12)C(=O)O` (stereo not drawn), the GI50 in test [1] is > 100 µM (inactive); in [2], > 100 µM (inactive); in [3] it was > 100 µM (inactive); in test [4] it was 65.5 µM (inactive); in test [5], > 100 µM (inactive); in [6], 8.26 µM (inactive). The GI50 in test [7], in test [8], in test [9], in test [10], in test [11] and in [12] was > 100 µM (inactive) throughout. The GI50 in [13] and in test [14] was > 100 µM (inactive) in each case.

Take `COC(=O)C1=C(O)C(C(=O)OC)[C@]2(O)[C@@H](C(=O)OC)[C@H]1C[C@@H](c1ccccc1)[C@@H]2C(=O)OC` (stereo partly drawn): the GI50 was 17.9 µM (inactive) in [1]; 15.8 µM (inactive) in test [15]; 11.9 µM (inactive) in test [2]; 14.2 µM (inactive) in [3]; 17.2 µM (inactive) in test [5]; 5.93 µM (inactive) in test [6]. Also, the GI50 in test [7] is 16.1 µM (inactive); in [16], 7.71 µM (inactive); in test [17], 18.2 µM (inactive); in test [8] it was 18.6 µM (inactive); in test [11] it was 9.73 µM (inactive); in test [18] it was 5.08 µM (inactive). Also, the GI50 was 17.4 µM (inactive) in [12], 27.6 µM (inactive) in test [13] and 23.7 µM (inactive) in [14].

For `COC(CN(C(C)=O)C1CCC2(SCCS2)c2[nH]c3ccccc3c21)OC` (stereo not drawn), the GI50 in test [1] was > 100 µM (inactive); in test [15], > 100 µM (inactive); in test [2], > 100 µM (inactive); in [3], > 100 µM (inactive); in test [4] it was > 100 µM (inactive); in test [5] it was 54.6 µM (inactive). The GI50 in [6], in [7], in [16], in test [17], in test [8] and in test [9] was > 100 µM (inactive) each time. Further, the GI50 in test [10] is > 100 µM (inactive); in [11], > 100 µM (inactive); in test [18] it was 38.6 µM (inactive); in test [14], > 100 µM (inactive).

For `COc1cc2c(cc1OC)-c1c(cnn1C1OC(COC(C)=O)C(OC(C)=O)C(OC(C)=O)C1OC(C)=O)CC2` (stereo not drawn), the GI50 is > 100 µM (inactive) in [1]; 48.1 µM (inactive) in test [4]; > 100 µM (inactive) in test [8]; > 42.8 µM (inactive) in test [11]; > 100 µM (inactive) in test [12]; > 100 µM (inactive) in test [14].

Consider `O=P1(N2CCOCC2)OCCO1`, for which the GI50 in test [1], in test [2], in test [3], in [4], in [5] and in test [6] was > 100 µM (inactive) throughout. The GI50 in [16], in test [17], in [9], in test [10], in test [11] and in [18] was > 100 µM (inactive) each time.

As for `CC(=O)OC(C(=O)O)C(OC(C)=O)C(OC(C)=O)C(OC(C)=O)C(=O)O` (stereo not drawn), the GI50 in test [15], in test [4], in test [5], in [6], in test [7] and in test [16] was > 100 µM (inactive) in each case. Further, the GI50 in test [17], in test [8], in test [9], in test [10], in test [11] and in test [12] was > 100 µM (inactive) each time. In addition, the GI50 in test [14] was > 100 µM (inactive).

For `CCOC(=O)c1c(-c2ccccc2)c(C)cn1C`, the GI50 in test [1] was > 10 µM (inactive); in [15], > 10 µM (inactive); in test [2] it was > 10 µM (inactive); in test [4], > 10 µM (inactive); in test [5] it was > 10 µM (inactive); in test [7], 0.0125 µM (active). Moreover, the GI50 in test [16], in test [8], in [9], in [18], in test [12] and in test [14] was > 10 µM (inactive) throughout.

In the case of `CCP(=O)(CC)C(Cl)Cl`, the GI50 in test [1], in test [2], in test [3], in test [4], in test [5] and in test [6] was > 100 µM (inactive) throughout. In addition, the GI50 in [7], in test [16], in test [8], in [9], in test [10] and in test [11] was > 100 µM (inactive) in each case. Moreover, the GI50 in test [12], in test [13] and in [14] was > 100 µM (inactive) each time.

On to `CN(CCCCCl)P(=O)(OCC1=CC(=O)c2ccccc2C1=O)OC[C@H]1O[C@@H](n2cc(F)c(=O)[nH]c2=O)C[C@@H]1O` (stereo partly drawn), for which the GI50 was < 0.01 µM (active) in test [1]; 9.06 µM (inactive) in test [15]; 0.052 µM (active) in test [2]; < 0.01 µM (active) in test [3]; < 0.0285 µM (active) in [4]; < 0.01 µM (active) in test [5]. For the same molecule, the GI50 was < 0.01 µM (active) in [6]; 3.2 µM (inactive) in [7]; 0.684 µM (active) in [16]; 1.1 µM (active) in test [17]; 0.521 µM (active) in test [8]; 0.165 µM (active) in test [10]. The results for the GI50 in [18] and in test [14] were 0.0625 µM (active) and 1.45 µM (inactive), respectively.

As for `O=Cc1cn(CCCCCCCCn2cc(C=O)c3ccccc32)c2ccccc12`, the GI50 in test [1] was > 10 µM (inactive); in test [2], 8.05 µM (inactive); in [3], > 10 µM (inactive); in [5] it was 6.49 µM (inactive); in test [6] it was 7.13 µM (inactive); in test [7], > 10 µM (inactive). In addition, the GI50 in test [16] is > 10 µM (inactive); in [17], > 10 µM (inactive); in test [8], 8.24 µM (inactive); in test [9] it was 5.15 µM (inactive); in [10] it was 4.22 µM (inactive); in test [11], 3.96 µM (inactive). The GI50 in test [18] was > 10 µM (inactive); in test [12] it was > 10 µM (inactive); in [13], 3.91 µM (inactive); in test [14] it was > 10 µM (inactive).

Source of the values: ChEMBL document CHEMBL1201862, “PubChem BioAssay data set” (2004).
